# How the values were obtained:
# Test in all cases: relative viability (nuclei count vs DMSO), 5 days (fraction); higher = more cells survive
# [1] = compound: C1COCCN1CC2=CC(=O)C(=CO2)OCCCCCSC3=C4C=CC(=CC4=NC=C3)C(F)(F)F [EHT 1864] + COc1cc2c(Oc3ccc(NC(=O)C4(C(=O)Nc5ccc(F)cc5)CC4)cc3F)ccnc2cc1OCCCN1CCOCC1 [Foretinib] (partner 0.25 µM)
# Method in brief: (§1)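 Cells from lung cancer lines were seeded into 1536-well plates and, one day later, dosed by pin tool. Treatments were either a single drug or a fixed dose of an anchor drug with five library-drug doses (not always all listed) in √10 steps. After 5 days, nuclei were stained in a one-step fixation (final 0.05% Triton X-100, 1% formaldehyde, 1 ug/ml Hoechst) and counted on 4× images, and relative viability is the treated-to-vehicle nuclei ratio, as the median of duplicate plates.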
# [2] = compound: C1COCCN1CC2=CC(=O)C(=CO2)OCCCCCSC3=C4C=CC(=CC4=NC=C3)C(F)(F)F [EHT 1864] + CS(=O)(=O)N1CCN(Cc2cc3nc(-c4cccc5[nH]ncc45)nc(N4CCOCC4)c3s2)CC1 [Pictilisib] (partner 1 µM)
# Method in brief: as §1
# [3] = compound: C1COCCN1CC2=CC(=O)C(=CO2)OCCCCCSC3=C4C=CC(=CC4=NC=C3)C(F)(F)F [EHT 1864] + NC(=O)Nc1cc(-c2cccc(F)c2)sc1C(=O)N[C@H]1CCCNC1 [AZD7762] (partner 0.2 µM)
# Method in brief: as §1
# [4] = compound: C1COCCN1CC2=CC(=O)C(=CO2)OCCCCCSC3=C4C=CC(=CC4=NC=C3)C(F)(F)F [EHT 1864] + O=C(CCCCCCC(=O)Nc1ccccc1)NO [Vorinostat] (partner 1 µM)
# Method in brief: as §1
Cell Line,relative viability ([1]; first compound 0.04 µM),relative viability ([1]; first compound 0.1265 µM),relative viability ([1]; first compound 0.4 µM),relative viability ([1]; first compound 1.265 µM),relative viability ([1]; first compound 4 µM),relative viability ([2]; first compound 0.04 µM),relative viability ([2]; first compound 0.1265 µM),relative viability ([2]; first compound 0.4 µM),relative viability ([2]; first compound 1.265 µM),relative viability ([2]; first compound 4 µM),relative viability ([3]; first compound 0.04 µM),relative viability ([3]; first compound 0.1265 µM),relative viability ([3]; first compound 0.4 µM),relative viability ([3]; first compound 1.265 µM),relative viability ([3]; first compound 4 µM),relative viability ([4]; first compound 0.04 µM),relative viability ([4]; first compound 0.1265 µM),relative viability ([4]; first compound 0.4 µM),relative viability ([4]; first compound 1.265 µM),relative viability ([4]; first compound 4 µM)
ABC-1,1.22,1.06,1.03,0.954,0.834,0.935,0.713,0.814,0.824,0.73,0.977,0.805,0.623,0.843,1.52,1.22,0.978,0.928,1.07,1.12
HCC-15,0.976,,0.994,0.882,1.01,0.737,0.577,0.793,0.656,0.731,1.01,,1.29,1.36,1.19,0.77,,0.838,0.81,0.929
NCI-H358,0.689,0.613,0.848,0.637,0.621,0.349,,0.342,0.315,0.3,0.558,0.587,0.536,0.556,0.456,0.645,0.652,0.612,0.68,0.559
PC-3 [JPC-3],1.04,0.887,0.943,0.968,0.936,0.816,0.577,0.853,0.928,0.657,0.825,0.753,0.808,0.73,0.863,0.886,0.718,0.83,0.77,0.801
NCI-H1993,0.741,,0.748,0.75,0.744,0.88,1.04,0.788,0.866,0.894,0.71,,0.827,0.775,0.83,0.896,,0.912,0.806,0.863
NCI-H1915,1.07,,1,1.07,1.08,1.02,,0.963,0.998,0.905,0.728,,0.681,0.711,0.719,0.501,,0.517,0.478,0.564
RERF-LC-KJ,1.01,0.838,0.834,0.896,0.893,0.617,0.521,0.459,0.491,0.479,0.893,0.873,0.96,0.939,1.43,0.676,0.585,0.69,0.735,0.718
LOU-NH91,0.956,0.874,0.922,0.96,0.814,0.537,0.507,0.559,0.527,0.514,0.746,0.67,0.759,0.735,0.755,0.924,0.799,1.02,0.876,0.856
NCI-H2347,0.974,,0.862,0.363,0.809,0.596,,0.582,0.639,0.583,0.776,0.654,0.621,0.727,0.792,0.544,0.396,0.506,0.65,0.739

# From the supplement of paper PMC10307832
